{"source": "ChEMBL document CHEMBL3286379", "about": "“Design and synthesis of pyrimidine molecules endowed with thiazolidin-4-one as new anticancer agents” (Eur J Med Chem, 2014)", "key": {"Rattus norvegicus [1]": {"tested_on": "Rattus norvegicus", "assay": "Hepatotoxicity in rat assessed as SGOT level at 0.12 mg/kg, po after 12 days (reference value: 140.23 +/- 1.39 U/mL)", "format": "toxicity, organism-based", "parameters": "dose 0.12 mg/kg, route oral", "settings": "in vivo, 288 h"}, "Rattus norvegicus [2]": {"tested_on": "Rattus norvegicus", "assay": "Hepatotoxicity in rat assessed as SGPT level at 0.12 mg/kg, po after 12 days (reference value: 31.17 +/- 0.39 U/mL)", "format": "toxicity, organism-based", "parameters": "dose 0.12 mg/kg, route oral", "settings": "in vivo, 288 h"}}, "data": [{"smiles": "O=c1[nH]cc(F)c(=O)[nH]1", "note": "[FLUOROURACIL]", "values": [{"measurement": "Activity", "setting": "Rattus norvegicus [1]", "value": 151.21, "unit": "U/ml"}, {"measurement": "Activity", "setting": "Rattus norvegicus [2]", "value": 32.75, "unit": "U/ml"}]}]}
